{"source": "patent US20260263543A1", "about": "“COMPOSITIONS AND METHODS TO INCREASE PRODUCTION OF GAMMA-AMINOBUTYRIC ACID” (Verb Biotics, priority 2023, published 2026)", "key": {"[1]": {"tested_on": "GABA production", "assay": "Synthesis of GABA in vitro (conversion of glutamate to GABA in culture)", "type": "cell-based, Lactiplantibacillus plantarum", "conditions": "cultures grown under anaerobic conditions at ~37° C. for 48 hours; data not shown", "description": "The Lactiplantibacillus plantarum Lp815 strain was assessed for its ability to convert glutamate to GABA in vitro. Overnight, stationary phase cultures (16-18 h) of L. plantarum Lp815 were used to inoculate 3 mL of fresh media at an optical density of ~0.05 as measured at 600 nm by a spectrophotometer (OD600). Multiple media types can be used, including rich media (e.g., MRS broth) or minimal media supplemented with the necessary components to support growth. The media can further be supplemented with L (+)-glutamic acid or a salt thereof and/or piperazine-N,N′-bis(2-ethanesulfonic acid) (PIPES). Cultures were grown under anerobic conditions at ~37° C. for 48 hours."}, "[2]": {"tested_on": "healthy adults", "assay": "Urine GABA and 5-HIAA levels in human participants after Lp815 supplementation", "type": "in vivo", "conditions": "week 4, 1×10^9 cfu/day for 4 weeks", "description": "The Lactiplantibacillus plantarum Lp815 strain was assessed for its ability to increase GABA levels in human participants. Eight healthy adults (5 female, 3 male) provided a urine sample at baseline (T=0). Urine was analyzed for GABA and 5-HIAA levels using the Neurotransmitter Basic Panel (available from Life Extension/National Diagnostics, Inc.). 5-HIAA is a metabolite of serotonin and indicative of serotonin levels in a subject. Participants with GABA levels in the high range at baseline ([…] GABA) were excluded from the study. Participants proceeded to take the Lp815 probiotic at 1×10^9 cfu/day for 4 weeks. Participants refrained from beginning any new treatments, using antibiotics, or taking any additional probiotic products.\nAfter 4 weeks of supplementation, a second urine sample was collected and GABA levels measured. […] Additionally, levels of 5-HIAA were increased by approximately 10% at week 4 relative to baseline (FIG. 1B)."}, "[3]": {"tested_on": "Participants with self-reported mild to moderate anxiety", "assay": "Double blind, randomized, placebo-controlled study of GAD-7 generalized anxiety scores", "type": "in vivo, human", "conditions": "1×10^9 CFU or 5×10^9 CFU daily; weeks 2, 4, and 6; FIG. 2", "description": "A double blind, randomized, placebo-controlled study was conducted to assess the impact of Lactiplantibacillus plantarum Lp815 on generalized anxiety scores. Participants with self-reported mild to moderate anxiety as measured by the GAD-7 questionnaire were enrolled in a six week trial. Participants with severe anxiety were excluded.\nThe GAD-7 questionnaire is a self-reported questionnaire that assesses anxiety levels based on 7 questions as measured over the last two weeks: 1) feeling nervous, anxious, or on edge, 2) not being able to stop or control worrying, 3) worrying too much about different things, 4) trouble relaxing, 5) being so restless that it is hard to sit still, 6) becoming easily annoyed or irritable, and 7) feeling afraid as if something awful might happen. For each question, a score of 0 (not at all), 1 (several days), 2 (more than half the days), or 3 (nearly every day) is assigned. The total score is a sum across the seven questions. A total score of 0-4 indicates minimal anxiety, 5-9 indicates mild anxiety, 10-14 indicates moderate anxiety, and 15-21 indicates severe anxiety.\nParticipants were divided into either placebo, 1×10^9 CFU daily of Lp815 or 5×10^9 CFU daily of Lp815. The GAD-7 questionnaire was administered at baseline, 2 weeks, 4 weeks and 6 weeks following supplementation."}}}
{"substance": "Lactiplantibacillus plantarum Lp815", "values": [{"measurement": "GABA production", "setting": "[1]", "value": "increase in GABA production"}, {"measurement": "GABA levels increase relative to baseline", "setting": "[2]; FIG. 1A", "value": "approximately 20%"}, {"measurement": "levels of 5-HIAA increase relative to baseline", "setting": "[2]; FIG. 1B", "value": "approximately 10%"}, {"measurement": "decrease in GAD-7 scores relative to baseline", "setting": "[3]", "value": "10-15 points"}]}
